Assay results as given in BindingDB's records for doi:10.3109/14756366.2011.636362 (Aristotle University of Thessaloniki, 2013).
pIC50: −log10 of the molar value.

Target: Gag-Pol polyprotein (Human immunodeficiency virus type 1 group M subtype B (isolate HXB2), UniProt P04585)
Assay: HIV-1 RT Activity Assay
Settings: pH 7.8; 37 °C
Method: HIV-1 Reverse Transcriptase Activity was measured using the colorimetric photometric immunoassay kit provided by Roche. Estimation of RT activity is achieved by quantification of the DNA synthesized by RT in a known period of time. Incubation was performed for 2 h at 37°C. PolyA:oligodT RNA template:primer hybrid at a concentration of 2.2 μg/ml was incubated with 20 nMof purified recombinant HIV-1 reverse transcriptase in a 50 μL incubation mixture containing 50 mM Tris-HCl pH 7.8, 160 mM KCl, 11 mM MgCl2, 5.3 mM DTT, 0.5 mM EDTA, 0.3% Triton-X 100 and 10 μM dTTP (unless otherwise mentioned) in the presence of digoxigeninconjugated dUTP (dUTP-DIG) and biotin-conjugateddUTP (dUTP-biotin). In a following step, the synthesised biotin-DIG-labelled DNA was bound to the surface of streptavidin-coated ELISA-plate wells. After washing out the unbound material, an antibody to digoxigenin, conjugated to peroxidase (anti-DIG-POD), was added and bound to the digoxigenin-labelled nucleotides. After a washing step and addition of the appropriate substrate, peroxidase catalyzed the transformation of the substrate, ABTS, to a yellow coloured reaction product. 15 min after ABTS addition, the coloured product was measured using a microtitre plate (ELISA) reader. For the estimation of inhibitory action of the compounds, reverse transcriptase was incubated in the presence of the potential inhibitor for 45 min at room temperature before addition of its substrates (pre-incubation).

First: O=C1CSC(c2c(Cl)cccc2Cl)N1c1nc2c(Cl)cccc2s1 (stereo not given) [3-(4-Chlorobenzo[d]thiazol-2-yl)-2-(2,6-dichlorophenyl)thiazolidin-4-one (6)]
Second: O=C1CSC(c2c(F)cccc2Cl)N1c1nc2c(Cl)cccc2s1 (stereo not given) [3-(4-Chlorobenzo[d]thiazol-2-yl)-2-(2-chloro-6-fluorophenyl)thiazolidin-4-one (7)]
The pIC50 of the first is lower: under 4.40 for the first, 7.40 for the second. The second is the more potent here.

`O=C1CSC(c2c(F)cccc2F)N1c1nc2c(Cl)cccc2s1` (stereo not given) [3-(4-Chlorobenzo[d]thiazol-2-yl)-2-(2,6-difluorophenyl)thiazolidin-4-one (8)] and `COc1cccc2sc(N3C(=O)CSC3c3c(F)cccc3Cl)nc12` (stereo not given) [3-(4-Methoxybenzo[d]thiazol-2-yl)-2-(2-chloro-6-fluorophenyl)thiazolidin-4-one (16)] cannot be ordered by pIC50: under 4.40 for the first, under 4.40 for the second.

Compared with `COc1cccc2sc(N3C(=O)CSC3c3c(Cl)cccc3Cl)nc12` (stereo not given) [3-(4-Methoxybenzo[d]thiazol-2-yl)-2-(2,6-dichlorophenyl)thiazolidin-4-one (15)], `COc1ccc2nc(N3C(=O)CSC3c3c(Cl)cccc3Cl)sc2c1` (stereo not given) [3-(6-Methoxybenzo[d]thiazol-2-yl)-2-(2,6-dichlorophenyl)thiazolidin-4-one (12)] is lower in pIC50: 5.52 for the first, under 4.40 for the second.

`O=C1CSC(c2c(Cl)cccc2Cl)N1c1nc2ccc(Cl)cc2s1` (stereo not given) [3-(6-Chlorobenzo[d]thiazol-2-yl)-2-(2,6-dichlorophenyl)thiazolidin-4-one (3)] and `O=C1CSC(c2c(F)cccc2Cl)N1c1nc2ccc(Cl)cc2s1` (stereo not given) [3-(6-Chlorobenzo[d]thiazol-2-yl)-2-(2-chloro-6-fluorophenyl)thiazolidin-4-one (4)] cannot be ordered by pIC50: under 4.40 for the first, under 4.40 for the second.

`CCOc1ccc2nc(N3C(=O)CSC3c3c(F)cccc3F)sc2c1` (stereo not given) [3-(6-Ethoxybenzo[d]thiazol-2-yl)-2-(2,6-difluorophenyl)thiazolidin-4-one (19)] and `COc1ccc2nc(N3C(=O)CSC3c3c(F)cccc3F)sc2c1` (stereo not given) [3-(6-Methoxybenzo[d]thiazol-2-yl)-2-(2,6-difluorophenyl)thiazolidin-4-one (14)] cannot be ordered by pIC50: under 4.40 for the first, under 4.40 for the second.

Going from `CCOc1ccc2nc(N3C(=O)CSC3c3c(F)cccc3Cl)sc2c1` (stereo not given) [3-(6-Ethoxybenzo[d]thiazol-2-yl)-2-(2-chloro-6-fluorophenyl)thiazolidin-4-one (18)] to `COc1ccc2nc(N3C(=O)CSC3c3c(F)cccc3Cl)sc2c1` (stereo not given) [3-(6-Methoxybenzo[d]thiazol-2-yl)-2-(2-chloro-6-fluorophenyl)thiazolidin-4-one (13)], the pIC50 falls from 5.47 to under 4.40. The first is the more potent here.

First: O=C1CSC(c2c(Cl)cccc2Cl)N1c1nc2ccc(F)cc2s1 (stereo not given) [3-(6-Fluorobenzo[d]thiazol-2-yl)-2-(2,6-dichlorophenyl)thiazolidin-4-one (9)]
Second: O=C1CSC(c2c(F)cccc2Cl)N1c1nc2ccccc2s1 (stereo not given) [3-(Benzo[d]thiazol-2-yl)-2-(2-chloro-6-fluorophenyl)thiazolidin-4-one (2)]
The pIC50 of the first is higher: 6.60 for the first, under 4.40 for the second. The first is the more potent here.

`O=C1CSC(c2c(F)cccc2F)N1c1nc2ccccc2s1` (stereo not given) [3-(Benzo[d]thiazol-2-yl)-2-(2,6-difluorophenyl)thiazolidin-4-one (1)] showed a pIC50 of under 4.40.
